Broadly, the AUC is the area under the concentration-time curve, a measure of exposure. One may read the Cmax as the highest concentration seen after dosing. By Tmax is commonly meant the time from dosing to the highest level.

Four molecules from patent US20050267054A1, “Antibacterial compounds with improved pharmacokinetic profiles” (priority 2002, published 2005) can be followed below.

Where two headings read alike, the source gives them in different places.

The nature of the data set: Pharmacokinetic profile, cassette dosing protocol in dog (IV and PO). The class given is in vivo. Particulars: male beagle dogs, 1 mg/kg; for AUC / clearance / half-life / Cmax / Tmax / Vd: dog, plasma; for clearance: read-out: CLp (IV) plasma clearance (converted); for Vd: male, beagle, iv. The method, then: The pharmacokinetic profiles of EXAMPLE 20, EXAMPLE 22, EXAMPLE 29 and EXAMPLE 31 were evaluated using cassette dosing protocols in dog. The cassette dosing protocol in dogs combined three test compounds with the reference compound (EXAMPLE 104 of commonly-owned U.S. Pat. No. 5,866,549), each at a dose of 1 mg/kg. The compounds for each cassette were formulated as a solution in an aqueous vehicle containing 10% ethanol and one equivalent hydrochloric acid. Groups of three male beagle dogs received either an intravenous dose (IV) or an oral dose (PO). Sequential blood samples were taken from each animal for 24 hours after dosing. The plasma concentrations of the test compound and reference compounds were simultaneously determined using HPLC-MS/MS following liquid-liquid extraction of the samples. The results are shown in TABLE 2, in which CLp is plasma clearance; T1/2 and Tmax are expressed in hours; Cmax is expressed in μg/mL; AUC is expressed in μg·h/mL; F is percent bioavaibility; and Vc and Vb (volumes of distibution) are expressed in L/Kg.

The mark [1] stands for this setting: intravenous dose, read-out: AUC (IV).
Setting [2] is: intravenous dose, read-out: T1/2 (IV) (converted).
[3] abbreviates: oral dose, read-out: T1/2 (PO) (converted).
The mark [4] stands for this setting: intravenous dose, read-out: Vb (IV) volume of distribution.
Where [5] appears, read: intravenous dose, read-out: Vc (IV) volume of distribution.

With `CC[C@H]1OC(=O)[C@@](C)(F)C(=O)[C@H](C)[C@@H](O[C@@H]2O[C@H](C)C[C@H](N(C)C)[C@H]2O)C(C)(OCC#Cc2ccc(-c3nnn(C)n3)s2)C[C@@H](C)C(=O)[C@H](C)[C@H]2NC(=O)O[C@@]21C` (stereo in doubt) [EXAMPLE 20, (3aS,4R,7S,9R,10R,11S,13R,15R,15aR)-4-ethyl-7-fluoro-3a,7,9,11,13,15-hexamethyl-11-((3-(5-(2-methyl-2H-tetraazol-5-yl)thien-2-yl)prop-2-ynyl)oxy)-2,6,8,14-tetraoxotetradecahydro-2H-oxacyclotetradecino(4,3-d) (1,3)-oxazol-10-yl 3,4,6-trideoxy-3-(dimethylamino)-β-D-xylo-hexopyranoside], the area under the curve (AUC) amounted to 7290 ng·h/mL under setting [1] and 5140 ng·h/mL (oral dose, read-out: AUC (PO)). For the setting “intravenous dose”, the clearance was 2.67 mL/min/kg. Besides, the half-life runs as follows: under setting [2], 14.4 h; under setting [3], 11.1 h. The concentration (oral dose) peaked (Cmax) at 250 ng/mL. Moreover, where the note is “oral dose”, the time to peak (Tmax) is 2 h. Also, where the note is “oral dose”, the “F (PO) percent bioavaibility” value is 73.60%. The Vd is, setting by setting: under setting [4], 3.1 L/kg; under setting [5], 1.6 L/kg.

For `CC[C@H]1OC(=O)[C@H](C)C(=O)[C@H](C)[C@@H](O[C@@H]2O[C@H](C)C[C@H](N(C)C)[C@H]2O)C(C)(OC/C=C/c2ccc(-c3nnn(C)n3)s2)C[C@@H](C)C(=O)[C@H](C)[C@H]2NC(=O)O[C@@]21C` (stereo in doubt) [EXAMPLE 22, (3aS,4R,7R,9R,10R,11S,13R,15R,15aR)-4-ethyl-3a,7,9,11,13,15-hexamethyl-11-(((2E)-3-(5-(2-methyl-2H-tetraazol-5-yl)thien-2-yl)prop-2-enyl)oxy)-2,6,8,14-tetraoxotetradecahydro-2H-oxacyclotetradecino(4,3-d) (1,3)-oxazol-10-yl 3,4,6-trideoxy-3-(dimethylamino)-β-D-xylo-hexopyranoside], the AUC came out at 11500 ng·h/mL under setting [1] and 6770 ng·h/mL (oral dose, read-out: AUC (PO)). Besides, for the setting “intravenous dose”, the clearance was 1.5 mL/min/kg. For the same molecule, the half-life under setting [2] was 8.4 h and the half-life under setting [3] is 7.8 h. Moreover, where the note is “oral dose”, the Cmax came out at 490 ng/mL. For the same molecule, the Tmax (oral dose) is 1.5 h. Besides, the “F (PO) percent bioavaibility” value (oral dose) is given as 63.00%. For the same molecule, the Vd by setting is: under setting [4], 1.1 L/kg; under setting [5], 0.9 L/kg.

Take `CC[C@H]1OC(=O)[C@H](C)C(=O)[C@H](C)[C@@H](O[C@@H]2O[C@H](C)C[C@H](N(C)C)[C@H]2O)C(C)(OCC#Cc2ccc(-c3nnn(C)n3)s2)C[C@@H](C)C(=O)[C@H](C)[C@H]2NC(=O)O[C@@]21C` (stereo in doubt) [EXAMPLE 29, (3aS,4R,7R,9R,10R,11S,13R,15R,15aR)-4-ethyl-3a,7,9,11,13,15-hexamethyl-11-((3-(5-(2-methyl-2H-tetraazol-5-yl)thien-2-yl)prop-2-ynyl)oxy)-2,6,8,14-tetraoxotetradecahydro-2H-oxacyclotetradecino(4,3-d) (1,3)-oxazol-10-yl 3,4,6-trideoxy-3-(dimethylamino)-β-D-xylo-hexopyranoside]: the “F (PO) percent bioavaibility” value (oral dose) stood at 80.30%. Besides, the Vd under setting [4] is 1.2 L/kg and the Vd under setting [5] turned out to be 0.9 L/kg.

Consider `CC[C@H]1OC(=O)[C@@](C)(F)C(=O)[C@H](C)[C@@H](O[C@@H]2O[C@H](C)C[C@H](N(C)C)[C@H]2O)C(C)(OC/C=C/c2ccc(-c3nnn(C)n3)s2)C[C@@H](C)C(=O)[C@H](C)[C@H]2NC(=O)O[C@@]21C` (stereo in doubt) [EXAMPLE 31, (3aS,4R,7S,9R,10R,11S,13R,15R,15aR)-4-ethyl-7-fluoro-3a,7,9,11,13,15-hexamethyl-11-(((2E)-3-(5-(2-methyl-2H-tetraazol-5-yl)thien-2-yl)prop-2-enyl)oxy)-2,6,8,14-tetraoxotetradecahydro-2H-oxacyclotetradecino(4,3-d) (1,3)-oxazol-10-yl 3,4,6-trideoxy-3-(dimethylamino)-β-D-xylo-hexopyranoside], for which the AUC is, setting by setting: under setting [1], 16100 ng·h/mL; (oral dose, read-out: AUC (PO)) 12600 ng·h/mL. In addition, for the setting “intravenous dose”, the clearance was 1.17 mL/min/kg. Besides, the half-life was 22.9 h under setting [2] and 17.2 h under setting [3]. The Cmax (oral dose) was determined as 480 ng/mL. Besides, where the note is “oral dose”, the Tmax was found to be 4.5 h. Further, the “F (PO) percent bioavaibility” value (oral dose) was determined as 81.10%. For the same molecule, the Vd by setting is: under setting [4], 2.3 L/kg; under setting [5], 1.1 L/kg.
